Data set [1] in a line: Inhibition of cyclophilin (unknown origin) assessed as inhibition of HCV #50-1 subgenomic viral replicon replication in presence of 5% FBS. Also on record: species or system Homo sapiens. In general terms: A replicon is a self-replicating genome or part of one, used to study replication in cells.
Data set [2] is described as follows: Inhibition of cyclophilin (unknown origin) assessed as inhibition of HCV #50-1 subgenomic viral replicon replication in presence of 50% human serum albumin.
The next data set has as its system Splenocyte. In words: Immunosuppressive activity in mouse splenocytes assessed as inhibition of concanavalinA-induced cell proliferation. In kind it is cell-based.
Data set [3] in a line: Inhibition of cyclophilin (unknown origin) assessed as inhibition of HCV FLR1 subgenomic viral replicon replication in presence of 10% FBS by luciferase reporter gene assay. Also on record: species or system Homo sapiens.
The nature of data set [4]: Inhibition of cyclophilin (unknown origin) assessed as inhibition of HCV FLR1 subgenomic viral replicon replication in presence of 50% human serum albumin by luciferase reporter gene assay.
Data set [5] in a line: AUC (0 to 24 hrs) in po dosed rat. In kind it is ADME, organism-based. Also on record: time < 24 hr, route oral. The settings on record: in vivo.
Data set [6] can be described thus: Oral bioavailability in rat. The data set is classed as ADME, organism-based. The following applies: in vivo.
Data set [7] in a line: Aqueous solubility of the compound in JP2 fluid at pH 6.8 by disintegration test. In kind it is physicochemical.
The next data set deals with Hepatitis C virus. In words: Antiviral activity against Hepatitis C virus genotype 1a infected in humanized liver SCID-Alb/uPA chimeric mouse assessed as log reduction in serum HCV RNA level at 15 mg/kg, po administered via gavage bid for 14 days cotreated with interferon-alfa2b at 400 U/g, sc administered qd measured for 7 days follow-up period without compound administration post-last dose. In kind it is functional, Hepacivirus hominis, subtype 1a. The settings on record: time 14 day.

Values after ≈ are worked out from the molar mass of the structure shown.

The EC50 is the concentration giving half of the maximal effect. The IC50 is the concentration needed to halve the response being measured. On to `C/C=C/C[C@@H](C)[C@@H](O)[C@H]1C(=O)N[C@@H]([C@@H](C)O)C(=O)N(C)CC(=O)N(C)[C@@H](CC(C)C)C(=O)N[C@@H](CC(C)C)C(=O)N(C)[C@@H](CC(C)C)C(=O)N[C@@H](C)C(=O)N[C@H](C)C(=O)N[C@@H](C[C@H](C)COCC(=O)N2CCOCC2)C(=O)N[C@@H](CC(C)C)C(=O)N(C)[C@@H](C(C)C)C(=O)N1C`, for which the EC50 in [1] was determined as 0.099 µg/mL; in [2] it was 0.56 µg/mL. In addition, the IC50 in the data set on Splenocyte turned out to be 0.92 µg/mL (≈ 0.683 µM).
As to `C/C=C/C[C@@H](C)[C@@H](O)[C@H]1C(=O)N[C@@H]([C@@H](C)O)C(=O)N(C)CC(=O)N(C)[C@@H](CC(C)C)C(=O)N[C@@H](CC(C)C)C(=O)N(C)[C@@H](CC(C)C)C(=O)N[C@@H](C)C(=O)N[C@H](C)C(=O)N[C@@H](C[C@H](C)CO)C(=O)N[C@@H](CC(C)C)C(=O)N(C)[C@@H](C(C)C)C(=O)N1C`, the EC50 in [1] amounted to 0.85 µg/mL; in data set [2], 2.4 µg/mL. The IC50 in the data set with Splenocyte amounted to 0.28 µg/mL (≈ 0.229 µM).
Consider `C/C=C/C[C@@H](C)[C@@H](O)[C@H]1C(=O)N[C@@H]([C@@H](C)O)C(=O)N(C)[C@H](COC)C(=O)N(C)[C@@H](CC(C)C)C(=O)N[C@@H](CC(C)C)C(=O)N(C)[C@@H](CC(C)C)C(=O)N[C@@H](C)C(=O)N[C@H](C)C(=O)N[C@@H](C[C@H](C)CN2CCOCC2)C(=O)N[C@@H](CC(C)C)C(=O)N(C)[C@@H](C(C)C)C(=O)N1C`, for which the figures for the EC50 in [3] and in data set [4] were 0.11 µg/mL and 0.25 µg/mL, respectively.
What is called AUC(0-t) is the area under the concentration-time curve up to a stated or last time point. A higher AUC(0-t) goes with high exposure. Usually bioavailability stands for the share of a dose that reaches the circulation, judged against a reference dose that is usually intravenous. What is called solubility is the concentration that dissolves in the medium under given conditions. Low readings indicate a poorly soluble substance, high ones a readily soluble substance. `C/C=C/C[C@@H](C)[C@@H](O)[C@H]1C(=O)N[C@@H]([C@@H](C)O)C(=O)N(C)[C@H](C)C(=O)N(C)[C@@H]([C@@H](C)OC)C(=O)N[C@@H](CC(C)C)C(=O)N(C)[C@@H](CC(C)C)C(=O)N[C@@H](C)C(=O)N[C@H](C)C(=O)N[C@@H](CC(C)C)C(=O)N[C@@H](CC(C)C)C(=O)N(C)[C@@H](C(C)C)C(=O)N1C` yielded an AUC(0-t) at 24 h in data set [5] of 16100 ng·h/mL. The same molecule registered a bioavailability in data set [6] of 36%. Also, in data set [7], the concentration in solution (solubility) came to 117 µg/mL (≈ 95.9 µM).
Regarding `C/C=C/C[C@@H](C)[C@@H](O)[C@H]1C(=O)N[C@@H]([C@@H](C)O)C(=O)N(C)CC(=O)N(C)[C@@H](CC(C)C)C(=O)N[C@@H](CC(C)C)C(=O)N(C)[C@@H](CC(C)C)C(=O)N[C@@H](C)C(=O)N[C@H](C)C(=O)N[C@@H](C[C@H](C)CN2CCOCC2)C(=O)N[C@@H](CC(C)C)C(=O)N(C)[C@@H](C(C)C)C(=O)N1C`, the half-maximal effective concentration (EC50) in [1] came out at 0.22 µg/mL. The IC50 with Splenocyte worked out at 0.12 µg/mL (≈ 0.093 µM).
Regarding `C/C=C/C[C@@H](C)[C@@H](O)[C@H]1C(=O)N[C@@H]([C@@H](C)O)C(=O)N(C)[C@H](COC)C(=O)N(C)[C@@H](CC(C)C)C(=O)N[C@@H](CC(C)C)C(=O)N(C)[C@@H](CC(C)C)C(=O)N[C@@H](C)C(=O)N[C@H](C)C(=O)N[C@@H](C[C@H](C)COC(=O)N(C)CCOC)C(=O)N[C@@H](CC(C)C)C(=O)N(C)[C@@H](C(C)C)C(=O)N1C`, the IC50 in the data set with Splenocyte was determined as 0.85 µg/mL (≈ 0.616 µM). Moreover, the results for the EC50 in data set [3] and in data set [4] were 0.06 µg/mL and 0.097 µg/mL, respectively.
`C/C=C/C[C@@H](C)[C@@H](O)[C@H]1C(=O)N[C@@H]([C@@H](C)O)C(=O)N(C)[C@H](COC)C(=O)N(C)[C@@H](CC(C)C)C(=O)N[C@@H](CC(C)C)C(=O)N(C)[C@@H](CC(C)C)C(=O)N[C@@H](C)C(=O)N[C@H](C)C(=O)N[C@@H](C[C@H](C)CN2CCOC(COC)(COC)C2)C(=O)N[C@@H](CC(C)C)C(=O)N(C)[C@@H](C(C)C)C(=O)N1C`: the IC50 with Splenocyte worked out at 1.7 µg/mL (≈ 1.2 µM). In data set [5], this molecule displayed an AUC(0-t) at 24 h of 16900 ng·h/mL. This molecule also had a bioavailability in [6] of 28.3%. The same molecule yielded a solubility in data set [7] of 54 µg/mL (≈ 38 µM). Besides, the “log(activity)” value in the data set with Hepatitis C virus was determined as 2. Besides, the EC50 in data set [3] worked out at 0.063 µg/mL; in [4], 0.1 µg/mL.
For `C/C=C/C[C@@H](C)[C@@H](O)[C@H]1C(=O)N[C@@H]([C@@H](C)O)C(=O)N(C)[C@H](COC)C(=O)N(C)[C@@H](CC(C)C)C(=O)N[C@@H](CC(C)C)C(=O)N(C)[C@@H](CC(C)C)C(=O)N[C@@H](C)C(=O)N[C@H](C)C(=O)N[C@@H](C[C@H](C)COC(=O)N2CCO[C@@H](COC)C2)C(=O)N[C@@H](CC(C)C)C(=O)N(C)[C@@H](C(C)C)C(=O)N1C`, the IC50 in the data set on Splenocyte came to 0.88 µg/mL (≈ 0.619 µM). For the same molecule, in data set [5], the AUC(0-t) at 24 h came to 12400 ng·h/mL. Besides, the bioavailability in [6] worked out at 12.9%. This molecule also registered a solubility in [7] of 73 µg/mL (≈ 51.3 µM). Further, the figures for the EC50 in data set [3] and in [4] were 0.058 µg/mL and 0.064 µg/mL, respectively.
As to `C/C=C/C[C@@H](C)[C@@H](O)[C@H]1C(=O)N[C@@H]([C@@H](C)O)C(=O)N(C)CC(=O)N(C)[C@@H](CC(C)C)C(=O)N[C@@H](CC(C)C)C(=O)N(C)[C@@H](CC(C)C)C(=O)N[C@@H](C)C(=O)N[C@H](C)C(=O)N[C@@H](CC(C)C)C(=O)N[C@@H](CC(C)C)C(=O)N(C)[C@@H](C(C)C)C(=O)N1C`, the EC50 in data set [1] is 0.096 µg/mL; in [2], 3.7 µg/mL. Besides, the IC50 in the data set on Splenocyte was determined as 0.026 µg/mL (≈ 0.0216 µM).
For `C/C=C/C[C@@H](C)[C@@H](O)[C@H]1C(=O)N[C@@H]([C@@H](C)O)C(=O)N(C)CC(=O)N(C)[C@@H](CC(C)C)C(=O)N[C@@H](CC(C)C)C(=O)N(C)[C@@H](CC(C)C)C(=O)N[C@@H](C)C(=O)N[C@H](C)C(=O)N[C@@H](C[C@H](C)COC(=O)N2CCN(C)CC2)C(=O)N[C@@H](CC(C)C)C(=O)N(C)[C@@H](C(C)C)C(=O)N1C`, in that order: 0.16 µg/mL, 0.22 µg/mL and 1.9 µg/mL (≈ 1.41 µM).
For `C/C=C/C[C@@H](C)[C@@H](O)[C@H]1C(=O)N[C@@H]([C@@H](C)O)C(=O)N(C)CC(=O)N(C)[C@@H](CC(C)C)C(=O)N[C@@H](CC(C)C)C(=O)N(C)[C@@H](CC(C)C)C(=O)N[C@@H](C)C(=O)N[C@H](C)C(=O)N[C@@H](C[C@H](C)COC(=O)NCCOC)C(=O)N[C@@H](CC(C)C)C(=O)N(C)[C@@H](C(C)C)C(=O)N1C`, the EC50 in data set [1] was 0.097 µg/mL; in data set [2], 0.55 µg/mL. Besides, the IC50 in the data set on Splenocyte was found to be 0.75 µg/mL (≈ 0.567 µM).

Source of the values: ChEMBL document CHEMBL4725301, “Discovery of a novel 9-position modified second-generation anti-HCV candidate via bioconversion and semi-synthesis of FR901459” (Bioorg Med Chem Lett, 2020).
